# Data taken from patent US5766624A, “Liposomal defensins” (The Liposme Company, Inc., priority 1995, dated 1998).
# Where no end group is shown, it is not given here.
# Tests used:
# In vivo acute toxicity = experiment: In vivo acute toxicity; set-up: species or system Balb/c mice; conditions: for Number of Animals Dead: tail vein
# Experimental: Mice were also injected with saline and with empty liposomes.
# [1] = Leakage of CAT1 probe from DSPC/Chol liposomes (ESR); conditions: for % Probe in Supernatant: CAT1, 23 deg. C
# Experimental: A solution of DSPC (60 mg) and cholesterol (20 mg) was dried by rotary evaporation; the dried lipids were then rehydrated with 2 ml of buffer (10 mM HEPES, 150 mM NaCl), containing 0.5 mM of the probe CAT1 (4-trimethylammmonium-2,2,6,6-tetramethylpiperidine-1-oxyl-iodide) so as to form a suspension of multilamellar liposomes containing the probe. A suspension of these vesicles was then heated for 10 min. at 65 deg. C. The sample was washed four times with HEPES buffer and resuspended in buffer to a final volume of 2 ml. […] Various amounts of this solution (see Table 1, below) were combined with an aliquot (100 μl) of the liposome preparation, with buffer then being added to bring the final volume up to 0.2 ml. Samples were microfuged, and the supernatants transferred to ESR tubes. Spectra were taken at room temperature (23 deg. C.) to determine the concentration of the probe in the supernatant samples (see Perkins et al., Biochim. Biophys. Acta. 943:103 (1988)).
# The data (see Table 1, below) indicates the percent of the probe found in the supernatant, and thereby, the percent leakage from the DSPC/Chol liposomes.
# Aspergillus fumigatus = experiment: Treatment of Aspergillus fumigatus infections in mice; type: in vivo, Balb/c mice; conditions: 2 mg/kg, given six hours after 2×10^7 A. fumigatus spores; 15-day period
# From the text: FIG. 14. Therapeutic Efficacy of Free and Liposomal Indolicidin Against Aspergillus Infections in Mice. […] The animals' survival was monitored over a period of fifteen days. Percent survival (vertical axis) is plotted against time in days (horizontal axis).
# Male Balb/c mice were each injected with 2×10^7 Aspergillus fumigatus spores by injection in the tail vein. After six hours, the mice were randomly divided into five groups of 10 mice each. […] The animals' survival was monitored over a 15-day period.
# [2] = Right angle light scattering of aqueous indolicidin; type: physicochemical; conditions: 10 mM HEPES, 150 mM NaCl, pH 7.5; light scattering 500 nm, 90 degrees
# Experimental: FIG. 1. Right Angle Light Scattering of Aqueous Indolicidin. […] Samples were placed in fluorescence cuvettes and the scattering of light at 500 nm wavelengths (excitation wavelength) was measured in the fluorimeter at an angle of 90 degrees.
# Samples were placed in fluorescence cuvettes and light scattering at 500 nm ([…] in the fluorimeter, at a 90 degree angle.
# [3] = Leakage of CAT1 probe from DSPC/Chol/DDAB liposomes (ESR)
# Experimental: A solution of DSPC (51.6 mg), cholesterol (20.2 mg) and dimethyldioctadecyl ammonium bromide (DDAB; 8.23 mg) was dried in a round-bottom flask. The lipids were rehydrated with buffer (10 mM HEPES, 150 mM NaCl) containing 0.5 mM of the probe CAT1 so as to form a suspension of multilamellar liposomes. The suspension was heated at 65 deg. C. for 10 min and then washed twice in 10 ml of the HEPES buffer, with the final pellet comprising DSPC/Chol/DDAB multilamellar liposomes containing CAT1, being resuspended in HEPES buffer to a final volume of 2 ml. A standard phosphate assay (see Chen et al., Anal. Chem. 28:1956 (1956)) was performed to determine the amount of lipid remaining (34.12 mg).
# Various amounts of this solution (see Table 2, below) were combined with an aliquot (100 μl) of the liposome suspension, the final volume of the samples being brought up to 0.2 ml with HEPES buffer. These samples were centrifuged, and aliquots of the supernatants were taken for ESR spectra determination (23 deg. C.) to measure probe leakage.
# protein kinase C = conditions: Charp et al., Biochem. Pharmacol. 37(5):951 (1988); cited from earlier work
compound,measurement,setting,value
CC[C@H](C)[C@H](N)C(=O)N[C@@H](CC(C)C)C(=O)N1CCC[C@H]1C(=O)N[C@@H](Cc1c[nH]c2ccccc12)C(=O)N[C@@H](CCCCN)C(=O)N[C@@H](Cc1c[nH]c2ccccc12)C(=O)N1CCC[C@H]1C(=O)N[C@@H](Cc1c[nH]c2ccccc12)C(=O)N[C@@H](Cc1c[nH]c2ccccc12)C(=O)N1CCC[C@H]1C(=O)N[C@@H](Cc1c[nH]c2ccccc12)C(=O)N[C@@H](CCCNC(=N)N)C(=O)N[C@@H](CCCNC(=N)N)C(N)=O [indolicidin],Number of Animals Dead,In vivo acute toxicity; free indolicidin dose 0.4 mg/kg,0/5
same,Number of Animals Dead,In vivo acute toxicity; free indolicidin dose 1.2 mg/kg,1/5
same,Number of Animals Dead,In vivo acute toxicity; free indolicidin dose 4.0 mg/kg,3/5
same,Number of Animals Dead,In vivo acute toxicity; free indolicidin dose 12.0 mg/kg,0/5
same,LD50,"In vivo acute toxicity; male Balb/c mice, tail vein injection",3 mg/kg
same,% Leakage of Probe,[1]; 0.42 mole % indolicidin,1.75%
same,% Probe in Supernatant,[1]; 0.42 mole % indolicidin (3.20 μl stock),6.14%
same,% Leakage of Probe,[1]; 0.82 mole % indolicidin,1.75%
same,% Probe in Supernatant,[1]; 0.82 mole % indolicidin (6.30 μl stock),6.14%
same,% Leakage of Probe,[1]; 1.61 mole % indolicidin,0.87%
same,% Probe in Supernatant,[1]; 1.61 mole % indolicidin (12.50 μl stock),5.26%
same,% Leakage of Probe,[1]; 3.16 mole % indolicidin,1.75%
same,% Probe in Supernatant,[1]; 3.16 mole % indolicidin (25.00 μl stock),6.14%
same,% Leakage of Probe,[1]; 6.16 mole % indolicidin,2.63%
same,% Probe in Supernatant,[1]; 6.16 mole % indolicidin (50.00 μl stock),7.02%
same,% Leakage of Probe,[1]; 8.93 mole % indolicidin,1.75%
same,% Probe in Supernatant,[1]; 8.93 mole % indolicidin (75.00 μl stock),6.14%
same,effect of increasing indolicidin concentration on probe leakage,"[1]; DSPC/Chol liposomes, 0.42-8.93 mole % indolicidin",did not significantly increase probe leakage
same,survival times of infected mice,Aspergillus fumigatus,slight increase in survival times
same,concentration at which indolicidin self-associates in solution,[2],≥ 30 µg/mL
same,% Probe in Supernatant,"[3]; 0.48 mole % indolicidin (3.20 μl stock), CAT1, 23 deg. C",8.00%
same,% Probe in Supernatant,[3]; 0.93 mole % indolicidin (6.30 μl stock),8.00%
same,% Probe in Supernatant,[3]; 1.84 mole % indolicidin (12.50 μl stock),9.78%
same,% Probe in Supernatant,[3]; 3.61 mole % indolicidin (25.00 μl stock),10.67%
same,% Probe in Supernatant,[3]; 6.99 mole % indolicidin (50.00 μl stock),9.78%
same,% Probe in Supernatant,"[3]; 10.09 mole % indolicidin (75.00 μl stock), corrected for any liposomes in the supernatant",0%
same,% Probe in Supernatant,"[3]; 13.04 mole % indolicidin (100.00 μl stock), corrected for any liposomes in the supernatant",0%
"HNP-1: human neutrophil protein 1, a prototypical mammalian defensin",protein kinase C activity,protein kinase C,inhibited
"HNP-2: human neutrophil protein 2, a prototypical mammalian defensin (CYCRIPACIAGERRYGTCIYQGRLWAFCC; ends and bridges not checked; cysteine pairing not given here; UniProt P59665 66-94, looked up)",protein kinase C activity,protein kinase C,inhibited
"HNP-3: human neutrophil protein 3, a prototypical mammalian defensin",protein kinase C activity,protein kinase C,inhibited
